Data reported in patent US20230183237A1, “COMPETITIVE AND NONCOMPETITIVE INHIBITORS OF THE MUSCARINIC ACETYLCHOLINE RECEPTOR M5” (Vanderbilt University, priority 2020, published 2023).
Where two headings read alike, the source gives them in different places.

Molecular target: T1, hM5 (Homo sapiens, UniProt P08912)
T1 construct: expressed in transfected cells
T1 sequence (P08912 1-532): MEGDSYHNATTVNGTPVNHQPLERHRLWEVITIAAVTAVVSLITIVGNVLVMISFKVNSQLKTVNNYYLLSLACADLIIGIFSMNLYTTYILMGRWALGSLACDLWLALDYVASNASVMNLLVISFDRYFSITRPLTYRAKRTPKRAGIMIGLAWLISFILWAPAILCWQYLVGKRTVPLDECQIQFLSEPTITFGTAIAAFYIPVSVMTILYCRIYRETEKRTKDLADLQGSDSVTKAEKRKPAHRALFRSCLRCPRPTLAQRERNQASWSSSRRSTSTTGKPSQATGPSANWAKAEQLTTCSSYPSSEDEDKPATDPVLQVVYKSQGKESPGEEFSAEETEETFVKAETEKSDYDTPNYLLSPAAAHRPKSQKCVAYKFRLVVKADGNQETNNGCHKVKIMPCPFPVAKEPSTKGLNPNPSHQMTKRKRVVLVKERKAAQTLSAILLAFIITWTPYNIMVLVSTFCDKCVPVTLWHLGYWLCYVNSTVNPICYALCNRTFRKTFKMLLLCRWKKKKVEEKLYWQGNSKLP
Experiment: Calcium mobilization concentration-response (IC50 vs EC80 acetylcholine), CHO hM5
Type: cell-based
Details: CELL LINE hM5, read-out: IC50
In short: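 CHO cells stably expressing hM5, dye-loaded, in HBSS/20 mM HEPES/2.5 mM probenecid, pH 7.4. Compounds were pre-incubated 140 s before an EC80 acetylcholine challenge, with calcium flux read kinetically.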

[1] = calcium mobilization, EC80 acetylcholine addition

Row | SMILES | IC50 [1] | IC50 (vs EC80 acetylcholine)
1 | O=S(=O)(c1ccc2c(c1)CCO2)N1CCC(c2ncc3cc[nH]c3n2)CC1 [Compound 33, 2-(1-((2,3-dihydrobenzofuran-5-yl)sulfonyl)piperidin-4-yl)-7H-pyrrolo[2,3-d]pyrimidine] | > 10 µM | –
2 | Cc1cc2ncnn2cc1C1CCN(S(=O)(=O)c2c(C(F)(F)F)nn(C)c2C)CC1 [Compound 118, 6-(1-((1,5-dimethyl-3-(trifluoromethyl)-1H-pyrazol-4-yl)sulfonyl)piperidin-4-yl)-7-methyl-[1,2,4]triazolo[1,5-a]pyridine] | 0.081 µM | –
3 | Cc1sc(C#N)nc1C1CCN(S(=O)(=O)c2ccc3c(c2)CCO3)CC1 [Compound 226] | 1.4 µM | –
4 | Cc1nc2cc(C)c(C3CCN(S(=O)(=O)c4ccc5c(c4)CCO5)CC3)cn2n1 [Compound 76, 6-(1-((2,3-dihydrobenzofuran-5-yl)sulfonyl)piperidin-4-yl)-2,7-dimethyl-[1,2,4]triazolo[1,5-a]pyridine] | > 10 µM | –
5 | Cc1cc2nccn2cc1C1CCN(S(=O)(=O)c2ccc(Cl)nc2)CC1 [Compound 70, 6-(1-((6-chloropyridin-3-yl)sulfonyl)piperidin-4-yl)-7-methylimidazo[1,2-a]pyridine] | > 10 µM | –
6 | O=S(=O)(c1cnc2n1CCCC2)N1CCC(c2cn3ncnc3cc2C(F)(F)F)CC1 [Compound 339, 6-(1-((5,6,7.8-tetrahydroimidazo[1,2-a]pyridin-3-yl)sulfonyl)piperidin-4-yl)-7-(trifluoromethyl)-[1,2,4]triazolo[1,5-a]pyridine] | 0.067 µM | –
7 | Cc1c(S(=O)(=O)N2CCC(c3cn4ncnc4cc3C(F)(F)F)CC2)cnn1C [Compound 273, 6-(1-((1,5-dimethyl-1H-pyrazol-4-yl)sulfonyl)piperidin-4-yl)-7-(trifluoromethyl)-[1,2,4]triazolo[1,5-a]pyridine] | 0.15 µM | –
8 | Cc1cc2nccn2nc1C1=CCN(S(=O)(=O)c2ccc3c(c2)CCO3)CC1 [Compound 34, 6-(1-((2,3-dihydrobenzofuran-5-yl)sulfonyl)-1,2,3,6-tetrahydropyridin-4-yl)-7-methylimidazo[1,2-b]pyridazine] | > 10 µM | –
9 | Cc1cc2ncnn2cc1C1CCN(S(=O)(=O)c2cnn(C)c2C#N)CC1 [Compound 400, 1-Methyl-4-((4-(7-methyl-[1,2,4]triazolo[1,5-a]pyridin-6-yl)piperidin-1-yl)sulfonyl)-1H-pyrazole-5-carbonitrile] | – | 0.018 µM
10 | Cc1cc2ncnn2nc1C1CCN(S(=O)(=O)c2cnc3n2CCC3)CC1 [Compound 208, 6-(1-((6,7-dihydro-5H-pyrrolo[1,2-a]imidazol-3-yl)sulfonyl)piperidin-4-yl)-7-methyl-[1,2,4]triazolo[1,5-b]pyridazine] | > 10 µM | –
11 | O=S(=O)(c1ccc(Cl)nc1)N1CCC(c2cc3cc[nH]c3cn2)CC1 [Compound 94, 5-(1-((6-chloropyridin-3-yl)sulfonyl)piperidin-4-yl)-1H-pyrrolo[2,3-c]pyridine] | > 10 µM | –
12 | Cc1cc2c(cc1C1CCN(S(=O)(=O)c3cnn4c3CCC4)CC1)OCO2 [Compound 374, 3-((4-(6-methylbenzo[d][1,3]dioxol-5-yl)piperidin-1-yl)sulfonyl)-5,6-dihydro-4H-pyrrolo[1,2-b]pyrazole] | 0.007 µM | –
13 | O=S(=O)(c1cnn2c1CCCC2)N1CC=C(c2cn3ncnc3cc2Cl)CC1 [Compound 242, 7-chloro-6-(1-((4,5,6,7-tetrahydropyrazolo[1,5-a]pyridin-3-yl)sulfonyl)-1,2,3,6-tetrahydropyridin-4-yl)-[1,2,4]triazolo[1,5-a]pyridine] | 0.005 µM | –
14 | O=S(=O)(c1ccc2c(c1)CCO2)N1CCC(c2nc3cccnc3s2)CC1 [Compound 12, 2-(1-((2,3-dihydrobenzofuran-5-yl)sulfonyl)piperidin-4-yl)thiazolo[5,4-b]pyridine] | > 10 µM | –
15 | O=S(=O)(c1ccc(Cl)nc1)N1CCC(c2cn3ncnc3cc2C(F)(F)F)CC1 [Compound 112, 6-(1-((6-chloropyridin-3-yl)sulfonyl)piperidin-4-yl)-7-(trifluoromethyl)-[1,2,4]triazolo[1,5-a]pyridine] | > 10 µM | –

Other lines, results leading:

Row | IC50 [1] | IC50 (vs EC80 acetylcholine) | SMILES
16 | – | 0.036 µM | Cc1cc2ncnn2cc1C1(F)CCN(S(=O)(=O)c2cnn(C)c2Cl)CC1 [Compound 419, 6-(1-((5-chloro-1-methyl-1H-pyrazol-4-yl)sulfonyl)-4-fluoropiperidin-4-yl)-7-methyl-[1,2,4]triazolo[1,5-a]pyridine]
17 | – | 0.059 µM | Cn1ncc(S(=O)(=O)N2CCC(c3cn4ncnc4cc3C(F)(F)F)CC2)c1C#N [Compound 409, 1-methyl-4-((4-(7-(trifluoromethyl)-[1,2,4]triazolo[1,5-a]pyridin-6-yl)piperidin-1-yl)sulfonyl)-1H-pyrazole-5-carbonitrile]
18 | – | 2.36 µM | Cc1ncc(S(=O)(=O)N2CCC(c3cc4cccnc4cc3C)CC2)s1 [Compound 449, 2-methyl-5-((4-(7-methylquinolin-6-yl)piperidin-1-yl)sulfonyl)thiazole]
19 | – | 0.065 µM | CCc1cc2ncnn2cc1C1CCN(S(=O)(=O)c2cc(C)ns2)CC1 [Compound 493, 5-((4-(7-ethyl-[1,2,4]triazolo[1,5-a]pyridin-6-yl)piperidin-1-yl)sulfonyl)-3-methylisothiazole]
20 | – | 0.021 µM | Cc1cc(S(=O)(=O)N2CCC(c3cn4ncnc4cc3C(F)F)CC2)sn1 [Compound 494, 5-((4-(7-(difluoromethyl)-[1,2,4]triazolo[1,5-a]pyridin-6-yl)piperidin-1-yl)sulfonyl)-3-methylisothiazole]
21 | – | 0.228 µM | [2H]C1([2H])CC(c2cn3ncnc3cc2C(F)F)CC([2H])([2H])N1S(=O)(=O)c1cnc(C)o1 [Compound 594, 5-((4-(7-(difluoromethyl)-[1,2,4]triazolo[1,5-a]pyridin-6-yl)piperidin-1-yl-2,2,6,6-d4)sulfonyl)-2-methyloxazole]
22 | – | 0.159 µM | CC(C)Oc1c(S(=O)(=O)N2CCC(c3cn4ncnc4cc3Cl)CC2)cnn1C [Compound 604, 7-chloro-6-(1-((5-isopropoxy-1-methyl-1H-pyrazol-4-yl)sulfonyl)piperidin-4-yl)-[1,2,4]triazolo[1,5-a]pyridine]
23 | – | 1.98 µM | [2H]C([2H])([2H])Oc1c(S(=O)(=O)N2CCC(c3nn4ncnc4cc3C)CC2)cnn1C [Compound 617, 6-(1-((5-(methoxy-d3)-1-methyl-1H-pyrazol-4-yl)sulfonyl)piperidin-4-yl)-7-methyl-[1,2,4]triazolo[1,5-b]pyridazine]
24 | – | 0.343 µM | Cc1cc(S(=O)(=O)N2CCC(c3nn4ncnc4cc3C)CC2)sn1 [Compound 487, 3-methyl-5-((4-(7-methyl-[1,2,4]triazolo[1,5-b]pyridazin-6-yl)piperidin-1-yl)sulfonyl)isothiazole]
25 | – | 0.972 µM | CCc1cc2ncnn2cc1C1CCN(S(=O)(=O)c2cn(C)nn2)CC1 [Compound 562, 7-ethyl-6-(1-((1-methyl-1H-1,2,3-triazol-4-yl)sulfonyl)piperidin-4-yl)-[1,2,4]triazolo[1,5-a]pyridine]
26 | – | 0.018 µM | [2H]C([2H])([2H])Oc1c(S(=O)(=O)N2CCC(c3cn4ncnc4cc3C)CC2)cnn1C [Compound 612, 6-(1-((5-(methoxy-d3)-1-methyl-1H-pyrazol-4-yl)sulfonyl)piperidin-4-yl)-7-methyl-[1,2,4]triazolo[1,5-a]pyridine]
27 | – | 0.006 µM | O=S(=O)(c1cnc2sccn12)N1CCC(c2cn3ncnc3cc2Cl)CC1 [Compound 531, 5-((4-(7-chloro-[1,2,4]triazolo[1,5-a]pyridin-6-yl)piperidin-1-yl)sulfonyl)imidazo[2,1-b]thiazole]
